The values that follow come from article PMC11800397, “Identification of the Polymerizing Glycosyltransferase Required for the Addition of D-Glucuronic Acid to the Capsular Polysaccharide of Campylobacter jejuni” (Biochemistry, 2025).

Broadly, the Km is the substrate concentration at which the rate is half of its maximum. Broadly, the kcat is the number of substrate molecules converted per active site and unit of time at saturation.

Data set [1] concerns the target T1, Cj1438C (C-terminal domain of Cj1438) (Campylobacter jejuni, UniProt Q0P8H6).
T1 construct: C-terminal hexahistidine tag (pET31b(+)); E. coli; 40,084 Da
Description: product analysis by ESI-MS, 1H and […] NMR. Format: biochemical. To be noted: 5.0 mM ATP, 10 mM MgCl2, 50 mM NH4HCO3, pH 8.0, 25 °C, 4 h.

Data set [2] relates to CO[C@@H]1O[C@H](CO)[C@@H](O)[C@H]1O. Description: purified protein. To be noted: 2.0 mM UDP-D-GlcA fixed, 0-25 mM substrate, 10 μM enzyme, 50 mM NH4HCO3, pH 8.0, 25 °C.

T1 sequence (Q0P8H6 entry or part of it): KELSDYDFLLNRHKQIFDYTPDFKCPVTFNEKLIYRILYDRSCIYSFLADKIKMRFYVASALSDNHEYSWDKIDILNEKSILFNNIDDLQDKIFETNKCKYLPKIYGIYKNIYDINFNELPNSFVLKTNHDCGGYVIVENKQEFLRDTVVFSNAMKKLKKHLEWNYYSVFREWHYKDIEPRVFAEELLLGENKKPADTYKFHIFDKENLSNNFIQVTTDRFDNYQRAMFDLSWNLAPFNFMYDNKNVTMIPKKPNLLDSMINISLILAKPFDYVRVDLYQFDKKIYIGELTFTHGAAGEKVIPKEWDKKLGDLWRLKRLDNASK

Take `CO[C@@H]1O[C@H](CO)[C@@H](O)[C@H]1O[C@H]1O[C@H](C(=O)O)[C@@H](O)[C@H](O)[C@H]1O` [7a, compound 7a]: the “product analysis by ESI-MS, 1H and 31P NMR” value in data set [1] (5.0 mM (S)-serinol phosphate) was “Incubation of Cj1438C with ATP, MgCl2, compound 7a, and (S)-serinol-P resulted in the formation”.

As to `N[C@@H](CO)COP(=O)(O)O` [(S)-serinol phosphate], in data set [1] (5.0 mM compound 7a), the “product analysis by ESI-MS, 1H and 31P NMR” value is “Incubation of Cj1438C with ATP, MgCl2, compound 7a, and (S)-serinol-P resulted in the formation”.

As to “Cj1432N (N-terminal domain of Cj1432) (Campylobacter jejuni subsp. jejuni NCTC 11168 = ATCC 700819)”, in data set [2], the Michaelis-Menten constant (Km) worked out at 970 ± 90 µM and the kcat was determined as 0.0085 ± 0.00017 s⁻¹.
